Measurements as given in patent US20230312550A1, “N-(2-(4-CYANOTHIAZOLIDIN-3-YL)-2-OXOETHYL)-QUINOLINE-4-CARBOXAMIDES” (AstraZeneca AB, priority 2020, published 2023).
In brackets after ≈: the same amount, converted by molar mass.

Tests used:
[1] = target: human dipeptidylpeptidase 7 (hDPP7) (Homo sapiens (Human), UniProt Q9UHL4); experiment: hDPP7 inhibition assay; type: biochemical; conditions: hDPP7 15 nM, Ala-Pro-amino-methylcoumarin 5 μM, n = 1
Protocol: Compounds were tested in a biochemical inhibition assay using human dipeptidylpeptidase 7 (hDPP7) enzyme at 15 nM FAC (BPS Bioscience, #80070) and the substrate Ala-Pro-amino-methylcoumarin (BPS Bioscience, #80305) at 5 μM FAC. The enzymatic reactions were conducted in duplicate at rt for 30 min in 50 μL DPP assay buffer (BPS Bioscience, #80300). Compound solutions (in DMSO) at 10 CR, 3 fold dilution series were prepared in assay buffer ten-fold higher than the final concentration, and 5 μL of the dilution was added to a 50 μL reaction so that the highest compound concentration was 100 μM FAC and the concentration of DMSO was 1% in all wells. The plates were read on a Tecan Infinite M1000 microplate reader with excitation 340 nm and emission 460 nm. Data were analyzed in Graph Pad Prism. IC50 values were determined by plotting % inhibition versus log compound concentration and using a one site dose response model. Raw data signals were normalized using 1% DMSO as 0% control and no enzyme as 100% inhibitor control.

FAP = FAP (Mus musculus (Mouse), UniProt P97321); experiment: FAP plasma inhibition assay, mouse plasma; type: biochemical; conditions: mouse plasma diluted 1:67, Ala-Pro-AMC 75 μM
Chain of FAP (P97321 24-761): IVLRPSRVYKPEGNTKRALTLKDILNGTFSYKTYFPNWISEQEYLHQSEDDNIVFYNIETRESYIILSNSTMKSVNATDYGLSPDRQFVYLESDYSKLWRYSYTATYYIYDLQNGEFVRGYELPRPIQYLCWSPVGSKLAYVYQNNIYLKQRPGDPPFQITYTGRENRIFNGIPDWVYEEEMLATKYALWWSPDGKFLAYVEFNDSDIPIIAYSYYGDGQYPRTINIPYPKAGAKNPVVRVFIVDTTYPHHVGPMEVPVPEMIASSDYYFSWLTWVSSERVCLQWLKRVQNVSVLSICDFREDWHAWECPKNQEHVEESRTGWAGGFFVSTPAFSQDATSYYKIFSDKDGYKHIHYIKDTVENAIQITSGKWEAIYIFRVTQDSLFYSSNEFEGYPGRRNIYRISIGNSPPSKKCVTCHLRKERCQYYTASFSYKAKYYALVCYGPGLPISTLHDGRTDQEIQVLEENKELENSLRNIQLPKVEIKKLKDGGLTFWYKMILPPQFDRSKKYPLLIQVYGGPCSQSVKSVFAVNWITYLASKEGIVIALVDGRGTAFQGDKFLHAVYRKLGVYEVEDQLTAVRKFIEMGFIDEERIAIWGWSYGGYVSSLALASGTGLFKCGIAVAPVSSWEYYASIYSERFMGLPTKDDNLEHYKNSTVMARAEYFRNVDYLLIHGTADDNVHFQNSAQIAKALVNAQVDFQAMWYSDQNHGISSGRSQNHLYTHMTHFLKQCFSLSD
Procedure, shortened: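 K2EDTA plasma served as enzyme source, human diluted 1:40 and mouse 1:67, in PBS with 0.1% BSA. Compounds ran as a 10-point 3-fold series from 500 nM final, in duplicate, 40 min at rt in the dark, with fluorescence read against a pre-substrate blank. IC50 came from % inhibition versus log concentration.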

[2] = target: Fibroblast Activation Protein alpha (FAP) (Mus musculus (Mouse), UniProt P97321); experiment: in vivo
Chain of Fibroblast Activation Protein alpha (FAP) (P97321 24-761): as above
Protocol: The effect of test compound on FAP enzyme activity in mouse plasma was evaluated in an enzymatic assay using the Fibroblast Activation Protein alpha (FAP) specific fluorogenic substrate dipeptide-Coumarin, Ala-Pro-AMC, (ARI-3144).
Male C57Bl/6 mice (Charles River, Germany), 8 weeks of age, were single housed in a temperature-controlled room with a 12-hour light/dark cycle (06:00-18:00 light). The mice had ad libitum access to water and rodent chow diet (R70, Lactamin, Kimstad, Sweden), and were acclimated for 5 days upon arrival. After acclimation, all mice received a single oral dose of test compound (3 or 10 mg/kg). Blood samples for whole blood compound exposure measurements were taken at 0.25, 0.5, 1, 2, 4, 8 and 24 h post oral dosing. Samples were collected in EDTA capillary tubes (20 μL, K2E, REF 19.447) and were transferred to a 96-deep well plate (NUNC, Thermo Discher Scientific) and stored at −20° C. until further analyses were performed. Blood samples for plasma FAP enzyme activity measurements were taken at 0, 0.25, 0.5, 1, 2, 8 and 24 h post dosing. 25 μL of whole blood was collected in EDTA Microvette® CB 300 (K2E, REF 16.444.100) tubes, and were centrifuged at 4,000×g for 5 min. 10 μL of plasma was then transferred to PCR tubes and stored at −20° C. until further analysis was performed. All blood samples were taken by vena saphena puncture.
Recombinant human FAP (PB-17-1837, construct PL-17-0278, cd33-FAP (27-757)-6His, Mw85926 Da) was used as a standard for this assay. […] The plates were read on a Beckman Paradigm reader with excitation 360 nm and emission 465 nm. Fluorescence measurements were performed with kinetic read every 5 minutes for 60 min at room temperature. Data were analyzed in Excel (IDBS XLfit Add-In) using a Linear Regression (y=k*x+m) model to prepare a human recombinant FAP standard curve.
On the day of the assay, plasma was diluted (1:2) to 20 μL volume in buffer (PBS, 0.1% BSA) and 7.5 μL was transferred to the assay plate (384-well black, fluotrack PS, Greiner 781076). Ala-Pro-AMC (stock solution in 10 mM DMSO) was diluted in buffer (PBS, 0.1% BSA) to 150 μM concentration (180 μL stock solution to 12 mL buffer) and 7.5 μL added to the assay plate followed by a pipetting mix. The plates were read on a Beckman Paradigm reader with excitation 360 nm and emission 465 nm. Fluorescence measurements were performed with kinetic read every 5 minutes for 60 minutes at room temperature. As noted above, FAP cleaves Ala-Pro-AMC to release free AMC which is measured as a fluorescent signal.
The in vivo potency IC50 of each test compound was then estimated by relating the plasma exposure C of the compound to target engagement E in plasma using the following equation:
where E0 is the FAP baseline in plasma prior to dosing and Imax is the maximum effect of the compound. Data from each target engagement experiment were considered separately and therefore slightly different estimates of FAP baseline for each compound were obtained. […] The parameter estimation was done in Phoenix WinNonlin Certara build 8.1.0.3530 with the algorithm ‘Naïve pooled’ as parameter estimation method.

[3] = target: human dipeptidylpeptidase 9 (hDPP9) (Homo sapiens (Human), UniProt Q86TI2); experiment: hDPP9 inhibition assay; type: biochemical; conditions: hDPP9 0.4 nM, Ala-Pro-amino-methylcoumarin 5 μM, n = 1
Chain of human dipeptidylpeptidase 9 (hDPP9) (Q86TI2 whole entry): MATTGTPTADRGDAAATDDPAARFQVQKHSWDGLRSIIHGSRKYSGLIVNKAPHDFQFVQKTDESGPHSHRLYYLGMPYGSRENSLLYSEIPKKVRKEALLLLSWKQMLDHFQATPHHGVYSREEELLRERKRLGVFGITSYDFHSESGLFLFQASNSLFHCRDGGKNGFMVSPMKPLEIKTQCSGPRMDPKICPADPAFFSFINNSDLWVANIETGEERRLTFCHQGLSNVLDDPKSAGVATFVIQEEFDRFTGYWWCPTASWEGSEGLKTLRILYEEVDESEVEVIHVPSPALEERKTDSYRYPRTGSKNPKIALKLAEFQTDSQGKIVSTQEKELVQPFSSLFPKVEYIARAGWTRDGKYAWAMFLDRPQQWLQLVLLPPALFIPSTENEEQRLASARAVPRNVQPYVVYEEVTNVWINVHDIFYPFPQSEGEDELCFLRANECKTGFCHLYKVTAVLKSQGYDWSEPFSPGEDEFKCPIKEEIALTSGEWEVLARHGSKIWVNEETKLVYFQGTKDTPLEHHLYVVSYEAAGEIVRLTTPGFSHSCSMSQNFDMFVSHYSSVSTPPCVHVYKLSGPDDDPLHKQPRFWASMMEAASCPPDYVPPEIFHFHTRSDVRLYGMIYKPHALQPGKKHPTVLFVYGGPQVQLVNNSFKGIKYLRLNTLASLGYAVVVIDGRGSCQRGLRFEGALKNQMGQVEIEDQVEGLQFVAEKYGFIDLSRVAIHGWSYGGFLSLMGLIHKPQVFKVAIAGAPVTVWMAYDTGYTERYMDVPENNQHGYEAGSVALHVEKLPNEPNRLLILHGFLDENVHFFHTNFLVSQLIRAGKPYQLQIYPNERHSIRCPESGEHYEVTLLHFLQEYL
Protocol: Compounds were tested in a biochemical inhibition assay using human dipeptidylpeptidase 9 (hDPP9) enzyme at 0.4 nM FAC (BPS Bioscience, #80090) and the substrate Ala-Pro-amino-methylcoumarin (BPS Bioscience #80305) at 5 μM FAC. The enzymatic reactions were conducted in duplicate at rt for 30 min in 50 μL DPP assay buffer (BPS Bioscience, #80300). […] The plates were read on a Tecan Infinite M1000 microplate reader with excitation 340 nm and emission 460 nm. Data were analyzed in Graph Pad Prism. IC50 values were determined by plotting % inhibition versus log compound concentration and using a one site dose response model. Raw data signals were normalized using 1% DMSO as 0% control and no enzyme as 100% inhibitor control.

Kinetic solubility = conditions: kinetic from dmso stock, Solubility, kinetic solubility; n = 1 or average of n = 2-3
Protocol: Kinetic solubility was measured as described in Comput Aided Mol Des 2015, 29, 795.

[4] = Metabolic stability in human liver microsomes (HLM); conditions: human, HLM CLint, n = 1 or average of n = 2-3
Protocol: Metabolic stability in HLM was measured as described in J Comput Aided Mol Des 2015, 29, 795.

Caco-2 cell permeability = conditions: human
Protocol: Caco-2 cell permeability was measured as described in Mol Pharm 2017, 14, 1601.

[5] = Metabolic stability in rat hepatocytes (rHep); conditions: n = 1 or geometric mean of n = 2-3
[6] = Metabolic stability in human hepatocytes (hHep); type: in vitro ADME; conditions: n = 1 or geometric mean of n = 2

IC50 [1]	IC50 (FAP)	IC50 [2]	IC50 [3]	solubility (Kinetic solubility)	microsomal CLint [4]	Papp A→B (Caco-2 cell permeability)	Papp B→A (Caco-2 cell permeability)	rHep CLint [5]	hHep CLint [6]	SMILES
> 100000 nM	0.5 nM	1.4 nM	–	–	–	–	–	–	–	CC1(CF)CN(c2ccc3nccc(C(=O)NCC(=O)N4CSC[C@H]4C#N)c3c2)C1 [Example 27, (R)—N-(2-(4-Cyanothiazolidin-3-yl)-2-oxoethyl)-6-(3-(fluoromethyl)-3-methylazetidin-1-yl)quinoline-4-carboxamide]
33000 nM	0.52 nM	0.18 nM	–	–	–	–	–	–	–	N#C[C@@H]1CSCN1C(=O)CNC(=O)c1ccnc2ccc(N3CCOCC3)cc12 [Example 67, (R)—N-(2-(4-Cyanothiazolidin-3-yl)-2-oxoethyl)-6-morpholinoquinoline-4-carboxamide]
> 100000 nM	–	2.1 nM	950 nM	–	–	–	–	–	–	N#C[C@@H]1CSCN1C(=O)CNC(=O)c1ccnc2ccc(N3CCO[C@@H](CF)C3)cc12 [Example 69, N-(2-((R)-4-Cyanothiazolidin-3-yl)-2-oxoethyl)-6-((R)-2-(fluoromethyl)morpholino)-quinoline-4-carboxamide]
> 100000 nM	0.2 nM	2.8 nM	1900 nM	–	–	–	–	–	–	N#C[C@@H]1CSCN1C(=O)CNC(=O)c1ccnc2ccc(N3CCO[C@H](CF)C3)cc12 [Example 71, N-(2-((R)-4-Cyanothiazolidin-3-yl)-2-oxoethyl)-6-((S)-2-(fluoromethyl)morpholino)-quinoline-4-carboxamide]
> 100000 nM	0.2 nM	7.2 nM	2500 nM	> 1000 µM	9.7 µL/min/mg	1.3 ×10⁻⁶ cm/s	24 ×10⁻⁶ cm/s	2.7 μL/min/1E6	<1 μL/min/1E6	C[C@@H]1CN(c2ccc3nccc(C(=O)NCC(=O)N4CSC[C@H]4C#N)c3c2)CCO1 [Example 72, N-(2-((R)-4-Cyanothiazolidin-3-yl)-2-oxoethyl)-6-((R)-2-methylmorpholino)-quinoline-4-carboxamide]
> 100000 nM	–	9 nM	1400 nM	980 µM (≈ 417 µg/mL)	7.5 µL/min/mg	0.81 ×10⁻⁶ cm/s	25 ×10⁻⁶ cm/s	2 μL/min/1E6	<1 μL/min/1E6	C[C@H]1CN(c2ccc3nccc(C(=O)NCC(=O)N4CSC[C@H]4C#N)c3c2)CCO1 [Example 80, N-(2-((R)-4-Cyanothiazolidin-3-yl)-2-oxoethyl)-6-((S)-2-methylmorpholino)-quinoline-4-carboxamide]
> 100000 nM	0.4 nM	3.3 nM	–	–	–	–	–	–	–	COC1(C)CN(c2ccc3nccc(C(=O)NCC(=O)N4CSC[C@H]4C#N)c3c2)C1 [Example 151, (R)—N-(2-(4-Cyanothiazolidin-3-yl)-2-oxoethyl)-6-(3-methoxy-3-methylazetidin-1-yl)quinoline-4-carboxamide]
> 100000 nM	0.2 nM	3 nM	–	–	–	–	–	–	–	N#C[C@@H]1CSCN1C(=O)CNC(=O)c1ccnc2ccc(N3CC4(C3)OCCO4)cc12 [Example 163, (R)—N-(2-(4-Cyanothiazolidin-3-yl)-2-oxoethyl)-6-(5,8-dioxa-2-azaspiro[3.4]octan-2-yl)quinoline-4-carboxamide]
> 100000 nM	0.3 nM	2.5 nM	–	–	–	–	–	–	–	Cc1nn(C)cc1-c1ccc2nccc(C(=O)NCC(=O)N3CSC[C@H]3C#N)c2c1 [Example 171, (R)—N-(2-(4-Cyanothiazolidin-3-yl)-2-oxoethyl)-6-(1,3-dimethyl-1H-pyrazol-4-yl)quinoline-4-carboxamide]
